Where “and” joins values, the source holds several entries; their conditions need not be identical. Equal values may be shown once. Entries after “also recorded” stand apart in the source; their conditions may differ. Each block holds one compound with its values, some of them ahead of it.
Assays:
human tumor specimens = assay: HPLC of tamoxifen and 4-OH-TAM isomers in tumors of tamoxifen-treated patients (Example 2); type: in vivo; details: for cis versus trans 4-OH-TAM in tumor nuclear pellets: patients with clinically-evident tumor resistance, FIG. 8
Experimental: (§1) Quantification of tamoxifen and its metabolites in tumor specimens was performed using photactivation and high performance liquid chromatography (HPLC) analysis. To summarize: Each tumor sample was weighed, spiked with an internal standard, and homogenized. Tissue samples were then extracted with 2% n-butanol in hexane and irradiated with high intensity ultraviolet light (254 nm). Samples were analyzed by HPLC using a C-18 reverse phase column and eluted isocratically with a mobile phase of water (7%) and triethylamine (0.25%) in methanol. All solvents were of HPLC grade. Fluorescence of all compounds was measured at a wavelength of 266 nm. […] In some samples, the tumor was first homogenized and then the nuclear pellet obtained by centrifugation. HPLC tamoxifen measurements were made on extracts of the entire tumor specimen or on subcellular fractions including the cytosol or-the total nuclear pellet. In some cases, the nuclear pellet was further extracted in 0.4M KCl to extract primary metabolites bound to estrogen receptor.
1) identification and measurement of tamoxifen and its metabolites in tumors isolated from tamoxifen-treated patients who are known treatment failures;
There are two tamoxifen-sensitive tumors (L281 and G375) for comparison because patients responding to treatment are not usually biopsied during the responsive phase of their disease.

MCF-7 tumors [1] = assay: HPLC quantification of tamoxifen and cis/trans-4-hydroxytamoxifen ratio in MCF-7 tumors from tamoxifen-treated mice (total tumor, nuclear pellet, KCl nuclear extract); type: in vivo; details: for Mean 4-OH-TAM cis/trans ratio: p < 0.0005
Experimental: In order to examine the relationship between tamoxifen metabolites and tamoxifen resistance, athymic Balb/c nude mice were implanted with human breast cancer tumor cells (MCF-7). Mice were treated daily for 4-6 months with subcutaneous tamoxifen. After tamoxifen resistance developed and tumor progression was observed, mice were sacrificed, and tumors were collected. In addition, tamoxifen-sensitive tumors were collected from mice still responding to tamoxifen therapy.
as §1, with “Samples were analyzed by HPLC using a C-18 reverse phase column and eluted isocratically with a mobile phase of water (7%) and triethylamine (0.25%) in methanol.” left out
The material extracted with KCl includes that bound to estrogen receptor.

MCF-7 tumors [2] = assay: HPLC of tamoxifen and metabolites in MCF-7 mouse tumors (Example 3); details: for Presence in MCF-7 tamoxifen resistant mouse tumor: HPLC, FIG. 13
Source text: (§2) Human breast tumors from various patients who failed tamoxifen therapy (20 mgs/day>one year) were obtained from the Breast Cancer Tumor Bank. A portion of the tumor was extracted, irradiated and analyzed by Mass Spectrometry (procedure described below). Tumor tissue was also obtained from an in vivo nude mouse model of acquired tamoxifen resistance. MCF-7 human breast tumors were harvested from nude mice after the development of tamoxifen resistance (4-6 months of tamoxifen administration, 500 ug/day). These tissues were frozen at -20° C. until analysis. Frozen tissue samples were weighed, homogenized, and extracted. Briefly, all samples were extracted with 6.0 ml of 2% butanol in hexane, vortexed for 1.0 min, and then centrifuged for 10 min at 1000×g. The organic phase was dried under N2 gas at 37° C. and reconstituted in 200 μl methanol prior to injection. The reconstituted samples were transferred to a Infrasil quartz cuvette (Fisher Scientific), irradiated for one minute with a 15 W Hg vapor lamp and injected onto a HPLC column.
(§3) The HPLC system consisted of a Beckman model 320 gradient liquid chromatograph, two model 110A pumps, and a model 420 controller. The HPLC was equipped with a reverse phase Altex C18 ultrasphere ODS column and a 100 μl injection loop. […] The flow rate of the mobil phase was set at 0.5 ml/min. The fluorescence of photochemically activated compounds was detected with an Applied Biosystems 980 fluorometer with excitation wavelength set at 266 nm. Retention times and peak heights were recorded with a Spectraphysics 4100 integrator.

[3] = as above; details: mouse, mcf-7 tumor, 500 ug/day
Source text: as §2, §3

[4] = in vivo; cited from earlier work
T47D human breast cell = details: cited from earlier work
[5] = in vitro; cited from earlier work
human breast tumors = assay: HPLC and mass spectrometry of tamoxifen metabolites in human breast tumors failing tamoxifen (Example 3); type: in vivo; details: HPLC / EI-MS
Source text: as §2
The HPLC system consisted of a Beckman model 320 gradient liquid chromatograph, two model 110A pumps, and a model 420 controller. The HPLC was equipped with a reverse phase Altex C18 ultrasphere ODS column and a 100 μl injection loop. The mobil phase consisted of 7% H2 O and […] triethylamine in methanol. The flow rate of the mobil phase was set at 0.5 ml/min. The fluorescence of photochemically activated compounds was detected with an Applied Biosystems 980 fluorometer with excitation wavelength set at 266 nm. Retention times and peak heights were recorded with a Spectraphysics 4100 integrator.
Non-irradiated samples were also injected onto the HPLC column and fractions were collected every minute. Fractionations corresponding to the retention times noted for the bisphenol and monophenol tamoxifen were further evaluated using mass-Spectrometry. The mass spectrometric behavior of the mono and bis phenols under electron impact ionization mass-spectrometry (EI-MS) was utilized. HPLC separated samples, in glass vials, were extracted with methanol, injected into glass capillaries and dried. Samples were introduced via a direct insertion probe. Spectra were recorded at 70 eV over the mass range of 70-500 at 10 seconds per decade with a resolution of 1000. The probe was heated in stages to 200° C.

[6] = cited from earlier work
[7] = resistant MCF-7 mouse tumors, N = 10 (N-DES 9, monophenol 8)
[8] = sensitive MCF-7 mouse tumors, N = 6 (bisphenol 5)

SMILES: CCC(=C(c1ccc(O)cc1)c1ccc(OCCN(C)C)cc1)c1ccccc1 [4-OH-TAM, 4-hydroxytamoxifen]
cis versus trans 4-OH-TAM in tumor nuclear pellets (human tumor specimens): greater cis than trans levels
cis/trans ratios in total tumor extract (human tumor specimens; tamoxifen-resistant patients' tumors, majority): relatively high cis/trans ratios in the total tumor extract
cis/trans ratios (human tumor specimens; two tumors from tamoxifen-sensitive patients): low cis/trans ratios
Cis/trans 4-OH-TAM ratio, individual tumor (MCF-7 tumors [1]; resistant MCF-7 tumors (N = 16)): 0.86 and 0.812 and 0.442 and 0.929 and 1.019 and 0.777 and 1.073 and 0.49 and 0.724 and 0.868 and 0.59 and 0.73 and 1.16 and 0.76 and 0.932
cis 4-OH-TAM/trans-4-OH-TAM ratio in KCl-extracted nuclear pellets compared with other fractions (MCF-7 tumors [1]; resistant tumor, FIG. 7): larger in the nuclear pellets extracted with KCl
C/T-OH-TAM ratio (summary) (MCF-7 tumors [1]; resistant tumors): 0.8-0.9
Median cis/trans 4-OH-TAM ratio (MCF-7 tumors [1]; resistant tumors): 0.84
Number of tumors with cis/trans ratio > 0.60 (MCF-7 tumors [1]; resistant tumors): 13/16
Number of tumors with cis/trans ratio ≤ 0.60 (MCF-7 tumors [1]; resistant tumors): 3/16
Range of cis/trans 4-OH-TAM ratio (MCF-7 tumors [1]; resistant tumors): 0.442-1.16
Mean 4-OH-TAM cis/trans ratio (MCF-7 tumors [1]; resistant tumors, SD = 0.196): 0.8141
cis/trans 4-OH-TAM ratio, resistant compared with sensitive tumors (MCF-7 tumors [1]; resistant vs sensitive): higher cis/trans ratios; also recorded: increase; also recorded: lower in sensitive than in resistant tumors; also recorded: the cis/trans ratio is higher in the resistant tumor
Cis/trans 4-OH-TAM ratio, individual tumor (MCF-7 tumors [1]; sensitive MCF-7 tumors (N = 16)): 0.575 and 0.588 and 0.472 and 0.56 and 0.645 and 0.428 and 0.446 and 0.4632 and 0.476 and 0.506 and 0.34 and 0.486 and 0.38 and 1.0 and 0.77
C/T-OH-TAM ratio (summary) (MCF-7 tumors [1]; sensitive tumors): 0.4-0.5
Median cis/trans 4-OH-TAM ratio (MCF-7 tumors [1]; sensitive tumors): 0.48
Number of tumors with cis/trans ratio > 0.60 (MCF-7 tumors [1]; sensitive tumors): 3/16
Number of tumors with cis/trans ratio ≤ 0.60 (MCF-7 tumors [1]; sensitive tumors): 13/16
Range of cis/trans 4-OH-TAM ratio (MCF-7 tumors [1]; sensitive tumors): 0.34-1.0
Mean 4-OH-TAM cis/trans ratio (MCF-7 tumors [1]; sensitive tumors, SD = 0.168): 0.5297

SMILES: CC/C(=C(\c1ccccc1)c1ccc(O)cc1)c1ccccc1 [Trans-metabolite E]
Estrogen agonist activity of metabolite E isomers (T47D human breast cell): weak partial agonist
Isomerization to cis metabolite E [5]: demonstrated in vitro

SMILES: CC/C(=C(/c1ccc(O)cc1)c1ccc(OCCN(C)C)cc1)c1ccccc1 [cis 4-hydroxytamoxifen]
cis versus trans 4-OH-TAM in tumor nuclear pellets (human tumor specimens): higher cis 4-OH-TAM in the nuclear pellets

SMILES: CC/C(=C(/c1ccccc1)c1ccc(O)cc1)c1ccccc1 [cis-metabolite E]
Estrogen agonist activity of metabolite E isomers (T47D human breast cell): potent estrogen agonist
Stimulation of T47D human breast cell growth (T47D human breast cell): more potent than bisphenol

SMILES: CC/C(=C(\c1ccc(O)cc1)c1ccc(OCCN(C)C)cc1)c1ccccc1 [trans 4-hydroxytamoxifen]
40H trans peak height (human tumor specimens; pellet (KCl nuclear extract), nd = not detectable, listed as 40H trans): 1024 and 1194

Continued, in another order:

Tamoxifen and metabolite concentrations, mean (X) (MCF-7 tumors [2]; [7]): 71.28 .eta.g/g tissue
Tamoxifen and metabolite concentrations, mean (X) (MCF-7 tumors [2]; [8]): 279.95 .eta.g/g tissue
concentration at 4380 h [3]: 135 ng/g
SMILES: CCC(=C(c1ccccc1)c1ccc(OCCNC)cc1)c1ccccc1 [N-desmethyltamoxifen]
Tamoxifen and metabolite concentrations, individual animal (MCF-7 tumors [2]; resistant MCF-7 mouse tumors): 19.65 .eta.g/g tissue and 68.12 .eta.g/g tissue and 38.44 .eta.g/g tissue and 135.44 .eta.g/g tissue and 50.27 .eta.g/g tissue and 65.70 .eta.g/g tissue and 127.29 .eta.g/g tissue and 100.43 .eta.g/g tissue
Tamoxifen and metabolite concentrations, individual animal (MCF-7 tumors [2]; sensitive MCF-7 mouse tumors): 124.70 .eta.g/g tissue and 331.82 .eta.g/g tissue and 534.62 .eta.g/g tissue and 5.95 .eta.g/g tissue and 322.99 .eta.g/g tissue and 359.67 .eta.g/g tissue
Occurrence in human serum [4]: major metabolite found in human serum

Tamoxifen and metabolite concentrations, mean (X) (MCF-7 tumors [2]; [7]): 21.33 .eta.g/g tissue
Tamoxifen and metabolite concentrations, mean (X) (MCF-7 tumors [2]; [8]): 392.43 .eta.g/g tissue
Presence in human breast cancer tissue (human breast tumors; listed as bisphenoltamoxifen): also present in these patients
SMILES: CCC(=C(c1ccc(O)cc1)c1ccc(O)cc1)c1ccccc1 [bisphenol]
Presence in MCF-7 tamoxifen resistant mouse tumor (MCF-7 tumors [2]): A very small peak was evident at a retention time similar to bisphenol
Tamoxifen and metabolite concentrations, individual animal (MCF-7 tumors [2]; resistant MCF-7 mouse tumors): 15.12 .eta.g/g tissue and 18.34 .eta.g/g tissue and 4.26 .eta.g/g tissue and 3.93 .eta.g/g tissue and 32.75 .eta.g/g tissue and 9.77 .eta.g/g tissue and 43.87 .eta.g/g tissue and 52.72 .eta.g/g tissue and 23.38 .eta.g/g tissue
Tamoxifen and metabolite concentrations, individual animal (MCF-7 tumors [2]; sensitive MCF-7 mouse tumors): 44.27 .eta.g/g tissue and 33.90 .eta.g/g tissue and 39.80 .eta.g/g tissue and 1491.44 .eta.g/g tissue and 352.76 .eta.g/g tissue
Presence in human breast cancer tissue (human breast tumors): the presence of bisphenol could not be confirmed

Presence in MCF-7 tamoxifen resistant mouse tumor (MCF-7 tumors [2]): noted on the chromatogram
Presence in human breast cancer tissue (human breast tumors): Peaks were also noted
SMILES: CCC(=C(c1ccc(O)cc1)c1ccc(OCCNC)cc1)c1ccccc1 [metabolite Bx]

Presence in human breast cancer tissue (human breast tumors): Peaks were also noted
SMILES: CCC(=C(c1ccccc1)c1ccc(OCCN)cc1)c1ccccc1 [metabolite Z, didesmethyltamoxifen]

Tamoxifen and metabolite concentrations, mean (X) (MCF-7 tumors [2]; [7]): 49.35 .eta.g/g tissue
Tamoxifen and metabolite concentrations, mean (X) (MCF-7 tumors [2]; [8]): 119.78 .eta.g/g tissue
concentration at 4380 h [3]: 22 ng/g
Presence in human breast cancer tissue (human breast tumors): confirmed the presence of monophenol
SMILES: CCC(=C(c1ccccc1)c1ccc(O)cc1)c1ccccc1 [monophenol]
Tamoxifen and metabolite concentrations, individual animal (MCF-7 tumors [2]; resistant MCF-7 mouse tumors): 24.30 .eta.g/g tissue and 9.63 .eta.g/g tissue and 21.99 .eta.g/g tissue and 20.66 .eta.g/g tissue and 232.66 .eta.g/g tissue and 47.82 .eta.g/g tissue and 27.13 .eta.g/g tissue
Tamoxifen and metabolite concentrations, individual animal (MCF-7 tumors [2]; sensitive MCF-7 mouse tumors): 7.69 .eta.g/g tissue and 109.07 .eta.g/g tissue and 160.99 .eta.g/g tissue and 37.72 .eta.g/g tissue and 265.25 .eta.g/g tissue and 137.93 .eta.g/g tissue
Presence in dog bile ([6]; dog, in vivo): isolated from the bile of dogs
Share of radiolabeled compounds present in bile ([6]; dogs): approximately 6%
Presence in human breast cancer tissue (human breast tumors; listed as monophenoltamoxifen): present in tumors isolated from patients who failed tamoxifen therapy
